Data on 15 compounds can be found in patent publication US10213429B2, “Imidazo-pyrazinyl derivatives useful as soluble guanylate cyclase activators” (Merck Sharp & Dohme Corp., priority 2015, dated 2019).

The experiment concerns the target T1, sGC α1/β1 heterodimer (Homo sapiens, UniProt Q02108+Q02153).
T1 construct: expressed in transfected cells; host or cells: CHO-K1 (clone #7, CHO-K1/sGC)
T1 sequence (Q02108 1-690): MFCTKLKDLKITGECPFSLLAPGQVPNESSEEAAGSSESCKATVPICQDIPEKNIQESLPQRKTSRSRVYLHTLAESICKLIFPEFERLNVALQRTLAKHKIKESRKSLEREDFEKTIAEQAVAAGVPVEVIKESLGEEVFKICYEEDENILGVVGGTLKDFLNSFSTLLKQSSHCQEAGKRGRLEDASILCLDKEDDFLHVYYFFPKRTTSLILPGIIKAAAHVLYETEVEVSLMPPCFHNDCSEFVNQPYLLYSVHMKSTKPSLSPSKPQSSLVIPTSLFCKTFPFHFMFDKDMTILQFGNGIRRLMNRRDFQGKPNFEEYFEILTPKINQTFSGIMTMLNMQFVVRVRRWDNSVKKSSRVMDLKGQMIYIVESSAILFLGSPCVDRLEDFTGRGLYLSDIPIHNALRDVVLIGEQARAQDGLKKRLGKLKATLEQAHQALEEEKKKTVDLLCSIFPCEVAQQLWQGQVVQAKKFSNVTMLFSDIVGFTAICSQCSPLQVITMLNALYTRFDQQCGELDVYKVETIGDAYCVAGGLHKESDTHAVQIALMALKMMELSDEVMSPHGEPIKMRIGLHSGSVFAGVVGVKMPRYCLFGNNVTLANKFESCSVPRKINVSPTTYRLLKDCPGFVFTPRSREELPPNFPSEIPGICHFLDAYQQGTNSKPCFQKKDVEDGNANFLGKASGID
T1 sequence (Q02153 1-619): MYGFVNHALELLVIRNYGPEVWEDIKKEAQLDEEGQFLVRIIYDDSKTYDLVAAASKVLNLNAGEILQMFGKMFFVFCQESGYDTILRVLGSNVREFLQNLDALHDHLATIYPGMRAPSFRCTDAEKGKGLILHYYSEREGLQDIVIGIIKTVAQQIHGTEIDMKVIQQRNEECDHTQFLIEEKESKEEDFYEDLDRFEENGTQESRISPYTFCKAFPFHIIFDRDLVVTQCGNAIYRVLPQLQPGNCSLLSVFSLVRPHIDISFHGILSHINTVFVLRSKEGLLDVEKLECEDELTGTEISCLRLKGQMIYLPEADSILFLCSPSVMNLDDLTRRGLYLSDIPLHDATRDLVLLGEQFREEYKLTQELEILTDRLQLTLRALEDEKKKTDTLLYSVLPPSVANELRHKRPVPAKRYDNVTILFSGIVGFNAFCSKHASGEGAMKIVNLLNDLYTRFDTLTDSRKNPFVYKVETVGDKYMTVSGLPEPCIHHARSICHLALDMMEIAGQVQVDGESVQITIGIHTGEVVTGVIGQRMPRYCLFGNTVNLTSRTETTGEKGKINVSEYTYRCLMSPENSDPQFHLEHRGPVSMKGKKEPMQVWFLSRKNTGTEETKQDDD
The experiment in a line: Cell-Based sGC Functional Assay (CASA Assay), cGMP by HTRF in CHO-K1/sGC cells. The conditions noted are these: for Emax: CHO-K1, percent activation relative to maximum cGMP production of Compound A (= 100%), read-out: % Act.; for EC50: cGMP production, 1 hr at 37° C., 4P fit, presence or absence of 1 μM DETA-NO not given, read-out: IP (nM) (inflection point). From the text: Biological Assay 1: Cell-Based sGC Functional Assay (CASA Assay)
sGC is a heme-containing enzyme that converts GTP to secondary messenger cGMP. Increases in cGMP levels affect several physiological processes including vasorelaxation through multiple downstream pathways. […] Heme-dependent activators (HDAs) preferentially activate sGC containing a ferrous heme group. To determine the effect of sGC activators on enzyme activity, the CASA assay was developed to monitor the generation of cGMP in a cell line that stably expresses the heterodimeric sGC protein.
A CHO-K1 cell line stably expressing the sGC α1/β1 heterodimer was generated using a standard transfection protocol. CHO-K1 cells were transfected with plasmids pIREShyghsGCα1 and pIRESneo-hsGCβ1 simultaneously using FUGENE reagent. Clones that stably express both subunits were selected with hygromycin and neomycin for ˜2 weeks. Clone #7 was chosen for the assay and was designated CHO-K1/sGC. CHO-K1/sGC cells were maintained in F-K12 medium containing 10% heat-inactivated Fetal Bovine Serum (FBS), 100 μg/mL penicillin/streptomycin, 0.5 mg/mL hygromycin and 0.25 mg/mL G418. The cells were then cryopreserved in LN2. On the day of the assay, cells were thawed and resuspended in EBSS Assay Buffer (Sigma, E3024) supplemented with 5 mM MgCl2, 10 mM HEPES (4-(2-hydroxyethyl)piperazine-1-ethanesulfonic acid) and 0.05% BSA (bovine serum albumin) (EAB) and cell density was then adjusted to 4×10^5/mL with EAB. IBMX (3-isobutyl-1-methylxanthin, 0.5 mM) was added to inhibit degradation of cGMP. Compounds were diluted from DMSO stock solutions and added to the assay at a final DMSO concentration of 2.5%. Cells were incubated with compounds in the presence and absence of 1 μM of Diethylenetriamine/nitric oxide adduct (DETA-NO; Sigma, 17018) for 1 hr at 37° C. At the end of the incubation period, the reaction was terminated and the cells were lysed with the detection reagents from Cisbio Kits. The level of intracellular cGMP was determined using an HTRF-based assay kit (CisBio, 62GM2PEC), which detects the displacement of a fluorescence labeled cGMP from its specific antibody. The cGMP produced by test compounds was directly compared to the maximum cGMP production (this value was set to equal 100% activation.) of the published sGC-HDA Compound A:
[drawing 175] (Example 1 in WO 2010/065275, published Jun. 10, 2010). The test compounds' activities were then expressed as a percentage of Compound A, the standard in every experiment. This percent activation was calculated either in the presence or absence of DETA-NO which was then plotted. IP and maximum fold induction was derived using ADA analysis software for 4P fit.
The compounds in the Examples of the instant invention had inflection points (IP) less than or equal to 10 μM and most less than or equal to about 1 μM.

Regarding `CC1(c2ccc(Cl)c(F)c2)C(=O)Nc2nc(-c3cn4ccnc4c(CCC(F)(F)F)n3)nc(O)c21` (stereo not drawn) [Example 13B, 5-(4-chloro-3-fluorophenyl)-4-hydroxy-5-methyl-2-(8-(3,3,3-trifluoropropyl)imidazo[1,2-a]pyrazin-6-yl)-5H-pyrrolo[2,3-d]pyrimidin-6(7H)-one], the Emax was found to be 70% and the EC50 was 183 nM.
Regarding `CC1(c2ccc(F)cc2)C(=O)Nc2nc(-c3cn4ccnc4c(CCC(F)(F)C(F)(F)F)n3)nc(C#N)c21` (stereo not drawn) [Example 85A, 5-(4-Fluorophenyl)-5-methyl-6-oxo-2-(8-(3,3,4,4,4-pentafluorobutyl)imidazo[1,2-a]pyrazin-6-yl)-6,7-dihydro-5H-pyrrolo[2,3-d]pyrimidine-4-carbonitrile], the Emax was determined as 97% and the EC50 is 257 nM.
In the same order, the values of `O=C1Nc2nc(-c3cn4ccnc4c(CCC(F)(F)C(F)(F)F)n3)ncc2C1(c1ccc(Cl)cn1)C1CC1` (stereo not drawn) [Example 7A, 5-(5-chloropyridin-2-yl)-5-cyclopropyl-2-(8-(3,3,4,4,4-pentafluorobutyl)imidazo[1,2-a]pyrazin-6-yl)-5H-pyrrolo[2,3-d]pyrimidin-6(7H)-one] are 113% and 343 nM.
Turning to `O=C1Nc2nc(-c3cn4ccnc4c(CCC(F)(F)C(F)(F)F)n3)ncc2C1(c1ccc(F)cc1)C1CC1` (stereo not drawn) [Example 11B, 5-cyclopropyl-5-(4-fluorophenyl)-2-(8-(3,3,4,4,4-pentafluorobutyl)imidazo[1,2-a]pyrazin-6-yl)-5H-pyrrolo[2,3-d]pyrimidin-6(7H)-one], the Emax is 88% and the EC50 is 66 nM.
For `CCCCc1nc(-c2ncc3c(n2)NC(=O)C3(C)c2ccc(F)cn2)cn2cc(C)nc12` (stereo not drawn) [Example 91B, 2-(8-Butyl-2-methylimidazo[1,2-a]pyrazin-6-yl)-5-(5-fluoropyridin-2-yl)-5-methyl-5H-pyrrolo[2,3-d]pyrimidin-6(7H)-one], the Emax was 117% and the EC50 is 330 nM.
In the case of `CC1(c2ccc(Cl)cn2)C(=O)Nc2nc(-c3cn4ccnc4c(Cc4ccc(F)cc4)n3)nc(O)c21` (stereo not drawn) [Example 16A, 5-(5-chloropyridin-2-yl)-2-(8-(4-fluorobenzyl)imidazo[1,2-a]pyrazin-6-yl)-4-hydroxy-5-methyl-5H-pyrrolo[2,3-d]pyrimidin-6(7H)-one], the Emax worked out at 111% and the EC50 was determined as 45 nM.
Take `CC1(c2ccc(F)cc2)C(=O)Nc2nc(-c3cn4ccnc4c(CC4CCC4)n3)ncc21` (stereo not drawn) [Example 63A, 2-(8-(cyclobutylmethyl)imidazo[1,2-a]pyrazin-6-yl)-5-(4-fluorophenyl)-5-methyl-5H-pyrrolo[2,3-d]pyrimidin-6(7H)-one]: the Emax is 107% and the EC50 was determined as 10 nM.
For `CC1(c2ccc(Cl)cn2)C(=O)Nc2nc(-c3cn4ccnc4c(CC4CCC4)n3)ncc21` (stereo not drawn) [Example 58A, 5-(5-chloropyridin-2-yl)-2-(8-(cyclobutylmethyl)imidazo[1,2-a]pyrazin-6-yl)-5-methyl-5H-pyrrolo[2,3-d]pyrimidin-6(7H)-one], the Emax came to 150% and the EC50 turned out to be 81 nM.
Turning to `CCCCc1nc(-c2nc(O)c3c(n2)NC(=O)C3(C)c2ccc(F)cc2)cn2ccnc12` (stereo not drawn) [Example 79A, 2-(8-Butylimidazo[1,2-a]pyrazin-6-yl)-5-(4-fluorophenyl)-4-hydroxy-5-methyl-5H-pyrrolo[2,3-d]pyrimidin-6(7H)-one], the Emax turned out to be 100% and the EC50 was 133 nM.
Regarding `CCCCc1nc(-c2nc(O)c3c(n2)NC(=O)C3(c2ccc(Cl)cn2)C2CC2)cn2ccnc12` (stereo not drawn) [Example 25A, 2-(8-butylimidazo[1,2-a]pyrazin-6-yl)-5-(5-chloropyridin-2-yl)-5-cyclopropyl-4-hydroxy-5H-pyrrolo[2,3-d]pyrimidin-6(7H)-one], the Emax was 153% and the EC50 was 240 nM.
As for `COCCOc1nc(-c2cn3ccnc3c(CCC(F)(F)C(F)(F)F)n2)nc2c1C(C)(c1ccc(F)cc1)C(=O)N2` (stereo not drawn) [Example 88A, 5-(4-Fluorophenyl)-4-(2-methoxyethoxy)-5-methyl-2-(8-(3,3,4,4,4-pentafluorobutyl)imidazo[1,2-a]pyrazin-6-yl)-5H-pyrrolo[2,3-d]pyrimidin-6(7H)-one], the Emax is 100% and the EC50 stood at 38 nM.
In the same order, the values of `CCCCc1nc(-c2ncc3c(n2)NC(=O)C3(c2ccc(F)c(F)c2)C2CC2)cn2ccnc12` (stereo not drawn) [Example 43A, 2-(8-butylimidazo[1,2-a]pyrazin-6-yl)-5-cyclopropyl-5-(3,4-difluorophenyl)-5H-pyrrolo[2,3-d]pyrimidin-6(7H)-one] are 112% and 7 nM.
For the compound `CCCCc1nc(-c2nc(O)c3c(n2)NC(=O)C3(c2ccc(Cl)c(F)c2)C2CC2)cn2ccnc12` (stereo not drawn) [Example 21A, 2-(8-butylimidazo[1,2-a]pyrazin-6-yl)-5-(4-chloro-3-fluorophenyl)-5-cyclopropyl-4-hydroxy-5H-pyrrolo[2,3-d]pyrimidin-6(7H)-one], the Emax turned out to be 122% and the EC50 amounted to 115 nM.
As for `CCc1nc(-c2cn3ccnc3c(CCC(F)(F)C(F)(F)F)n2)nc2c1C(C)(c1ccc(F)cc1)C(=O)N2` (stereo not drawn) [Example 76A, 4-ethyl-5-(4-fluorophenyl)-5-methyl-2-(8-(3,3,4,4,4-pentafluorobutyl)imidazo [1,2-a]pyrazin-6-yl)-5H-pyrrolo[2,3-d]pyrimidin-6(7H)-one], the Emax was 130% and the EC50 was 95 nM.
As for `CC1(C(=O)NC2CC2)C(=O)Nc2nc(-c3cn4ccnc4c(Cc4ccccc4F)n3)ncc21` (single isomer, unassigned) [Example 69A, N-cyclopropyl-2-(8-(2-fluorobenzyl)imidazo[1,2-a]pyrazin-6-yl)-5-methyl-6-oxo-6,7-dihydro-5H-pyrrolo[2,3-d]pyrimidine-5-carboxamide], the EC50 is 38 nM. Besides, the “% Act.” value (percent activation relative to maximum cGMP production of Compound A (= 100%)) stood at 179%.
